pIC50: −log10 of the molar value.
Assays:
IL-6 = assay: LPS-induced IL-6 production in RAW264.7 macrophages (ELISA); assay type: cell-based, mouse; conditions: for pIC50: Mus musculus, RAW264.7 macrophages, LPS 5 μg/mL, 24 h; for potency of inhibitory activity on IL-6 relative to Dexamethasone: compared with Dexamethasone
Description: (§1) RAW264.7 cell, a murine macrophage cell line, was purchased from American Type Culture Collection (ATCC, Manassas, VA, USA). Cells were grown in Dulbecco’s Modified Eagle Media (DMEM) containing 10% fetal bovine serum, 2 mM L-glutamine, 100 U/mL penicillin, and 100 μg/mL streptomycin and were maintained at 37 °C in a humidified incubator of 5% CO2.
(§2) RAW264.7 cells (1 × 10^5/well) were seeded into 96-well plates in triplicate and were treated with DMEM media only or 5 μg/mL of LPS or with indicated concentrations of compounds for 24 h. Supernatants were collected and then quantified with the mouse TNF-α, IL-6, and IL-1β ELISA kits following the manufacturer’s instructions.

IL-1β = assay: LPS-induced IL-1β production in RAW264.7 macrophages (ELISA); assay type: cell-based; conditions: Mus musculus, LPS 5 μg/mL, 24 h
Description: as §1, §2

[1] = Cell viability assay (MTT) in RAW264.7 cells; assay type: cell-based, mouse; conditions: mouse, RAW264.7 macrophage cells; RAW264.7 cells, 24 h, MTT; read-out: Cytotoxicity CC50
Description: as §1
(§3) RAW264.7 cells (1 × 10^5/well) were seeded into 96-well plates in triplicate and were treated with DMEM media or indicated concentrations of compounds for 24 h. MTT solution was added to each well at a final concentration of 0.5 mg/ml and incubated for 4 h before the end of the culture. The quantity of formazan is measured at 570 nm with a microplate reader (Molecular Devices, Sunnyvale, CA, USA) and the cell viability was calculated.

RAW264.7 cells = assay: Cell viability assay (MTT) in RAW264.7 cells; assay type: cell-based, mouse; conditions: at the indicated concentrations, compared to Dexamethasone
Description: as §1, §3

TNF-α = assay: LPS-induced TNF-α production in RAW264.7 macrophages (ELISA); assay type: cell-based; conditions: Mus musculus, LPS 5 μg/mL, 24 h
Description: as §1, §2

NF-κB signaling pathway = assay: Western blotting of LPS-induced NF-κB signaling pathway activation in RAW264.7 cells; assay type: cell-based, mouse; conditions: Western blot
Description: as §1
RAW264.7 cells (6 × 10^5/well) were seeded into 24-well plates and treated with DMEM media only or 5 μg/mL of LPS or with indicated concentrations of compounds for 24 h. Cells were lysed in sodium dodecyl sulfate (SDS) sample buffer containing protease inhibitor cocktail (Roche Life Science, Mannheim, Germany). The resulted proteins were resolved by SDS-polyacrylamide gel electrophoresis and then subjected to the following antibodies: anti-mouse IKK-α, anti-mouse phospho-IKK-α, anti-mouse IκB-α, anti-mouse NF-κB p65, anti-mouse phospho-NF-κB p65 antibodies (Cell Signaling Technology, Beverly, MA), and HRP-conjugated mouse anti-GAPDH (Kangcheng, Shanghai, China). Signals were detected with an HRP-conjugated anti-rabbit IgG (Bio-Rad, Richmond, CA, USA) using an ECL system (Amersham Biosciences, Buckinghamshire, UK). The uncropped and unprocessed scans of indicated blots were supplied as Supplementary Figure 99 in the Supplementary Information.

| SMILES | pIC50 (IL-6) | potency of inhibitory activity on IL-6 relative to Dexamethasone (IL-6) | pIC50 (IL-1β) | CC50 at 24 h [1] | cytotoxicity (in words) (RAW264.7 cells) | pIC50 (TNF-α) | degradation of IκB-α (NF-κB signaling pathway) | phosphorylation of IKK-α (NF-κB signaling pathway) | phosphorylation of NF-κB (NF-κB signaling pathway) |
| --- | --- | --- | --- | --- | --- | --- | --- | --- | --- |
| Cc1oc2cc1C(=O)NCCCCCCCCCCCC(=O)Nc1ccc(cc1)C(C)(C)/C=C\2C(C)(C)C [6g] | 5.80 | approximately ten times more potent | 6.23 | > 250 µM | did not show obvious cytotoxicity | 6.35 | abrogate | abrogate | suppressed by 6g in a concentration-dependent manner |
| Cc1oc2cc1C(=O)NCCCCCCCCCCCC(=O)N1CCC[C@H]1C(=O)Nc1ccc(cc1)C(C)(C)/C=C\2C(C)(C)C [6d] | 3.71 | – | 4.76 | 27.7 µM | – | 3.97 | – | – | – |
| Cc1oc2cc1C(=O)NCCCCCCCCCCCC(=O)N[C@@H](Cc1ccccc1)C(=O)Nc1ccc(cc1)C(C)(C)/C=C\2C(C)(C)C [6a] | 4.27 | – | 4.89 | 152 µM | – | < 3.60 | – | – | – |
| Cc1oc2cc1C(=O)NCCCCCCCCCCCC(=O)N[C@@H](C)C(=O)Nc1ccc(cc1)C(C)(C)/C=C\2C(C)(C)C [6b] | 5.14 | – | 5.47 | 39.7 µM | – | 5.67 | – | – | – |
| CSCC[C@@H]1NC(=O)CCCCCCCCCCCNC(=O)c2cc(oc2C)/C(C(C)(C)C)=C\C(C)(C)c2ccc(cc2)NC(=O)[C@H](Cc2ccccc2)NC1=O [6f] | 4.53 | – | 5.06 | 214 µM | – | 5.00 | – | – | – |
| Cc1oc2cc1C(=O)N[C@@H](C(C)C)C(=O)NCCCCCCCCCCCC(=O)Nc1ccc(cc1)C(C)(C)/C=C\2C(C)(C)C [6h] | 6.02 | approximately ten times more potent | 8.39 | 56.4 µM | did not show obvious cytotoxicity | 4.25 | – | – | – |
| Cc1oc2cc1C(=O)NCCCCCCCCCCCC(=O)N[C@@H](C(C)C)C(=O)N[C@@H](Cc1ccccc1)C(=O)Nc1ccc(cc1)C(C)(C)/C=C\2C(C)(C)C [6e] | 4.09 | – | 5.52 | > 250 µM | – | < 3.60 | – | – | – |
| Cc1oc2cc1C(=O)NCCCCCCCCCCCC(=O)N[C@@H](C(C)C)C(=O)Nc1ccc(cc1)C(C)(C)/C=C\2C(C)(C)C [6c] | 4.98 | – | 5.36 | 154 µM | – | 4.94 | – | – | – |

Source: publication PMC7910576, “Marine furanocembranoids-inspired macrocycles enabled by Pd-catalyzed unactivated C(sp^3)-H olefination mediated by donor/donor carbenes” (Nature Communications, 2021)
